# Data as given in patent US20250268903A1, “RXFP1 AGONISTS” (BRISTOL-MYERS SQUIBB COMPANY, priority 2021, published 2025).
# Target: T1, human RXFP1 (Homo sapiens, UniProt Q9HBX9)
# T1 construct: expressed in transfected cells
# T1 sequence (Q9HBX9 1-757): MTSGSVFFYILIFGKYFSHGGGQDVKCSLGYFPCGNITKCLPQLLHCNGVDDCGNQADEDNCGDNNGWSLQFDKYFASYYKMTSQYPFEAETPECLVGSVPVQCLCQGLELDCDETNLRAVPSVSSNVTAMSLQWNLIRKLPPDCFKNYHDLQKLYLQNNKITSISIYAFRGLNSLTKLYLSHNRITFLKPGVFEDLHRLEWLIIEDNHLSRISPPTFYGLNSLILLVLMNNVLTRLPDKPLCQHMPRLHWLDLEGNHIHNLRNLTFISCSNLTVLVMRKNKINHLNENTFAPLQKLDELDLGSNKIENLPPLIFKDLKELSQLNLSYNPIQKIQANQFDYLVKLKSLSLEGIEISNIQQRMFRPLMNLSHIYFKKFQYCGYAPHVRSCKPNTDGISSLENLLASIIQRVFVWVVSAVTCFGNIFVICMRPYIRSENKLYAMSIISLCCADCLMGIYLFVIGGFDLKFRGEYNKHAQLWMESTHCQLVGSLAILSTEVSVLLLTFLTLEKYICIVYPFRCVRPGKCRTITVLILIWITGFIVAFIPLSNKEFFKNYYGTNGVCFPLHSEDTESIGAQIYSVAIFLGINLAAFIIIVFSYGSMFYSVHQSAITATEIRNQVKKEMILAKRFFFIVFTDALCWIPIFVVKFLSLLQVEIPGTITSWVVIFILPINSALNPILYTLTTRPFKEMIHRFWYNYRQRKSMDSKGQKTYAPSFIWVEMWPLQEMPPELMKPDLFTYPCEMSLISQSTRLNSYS
# Experiment: hRXFP1 HEK293 cAMP assay (HTRF)
# Assay type: cell-based
# Conditions: HEK293 cells stably expressing human RXFP1, 30 min at room temperature
# Outline: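 Intracellular cAMP was read by HTRF, with potency fitted to a 4-parameter logistic curve. Compound exposure (0.010 nM–50 μM final, 2% DMSO) lasted 30 min at room temperature. Cells were hRXFP1-HEK293 at 1500 per well in IBMX-containing (0.5 mM) HEPES-buffered HBSS.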
row,EC50,Compound
1,780 nM,"COc1ccc(C2CCCC(O)C2)cc1C(=O)N[C@@H]1C2CCC(/C2=C/C(F)(F)F)[C@@H]1C(=O)Nc1ccc(F)c(C(F)(F)F)c1 (single isomer, unassigned) [Example 37]"
2,1290 nM,"COc1ccc(COC[C@@H]2C[C@@H]2C(=O)OCc2ccccc2)cc1C(=O)N[C@H]1[C@@H](C(=O)Nc2ccc(F)c(C(F)(F)F)c2)[C@H]2CC[C@@H]1/C2=C\C1CC1 [Example 287, benzyl (1S, 2R)-2-{[(3-{[(1R,3S,4R,7Z)-7-(cyclopropylmethylidene)-3-{[4-fluoro-3-(trifluoromethyl)phenyl]carbamoyl}bicyclo[2.2.1]heptan-2-yl]carbamoyl}-4-methoxyphenyl)methoxy]methyl} cyclopropane-1-carboxylate]"
3,781 nM,COc1ccc(CCO)cc1C(=O)NC1C2CCC(/C2=C/C(F)(F)F)[C@@H]1C(=O)Nc1ccc(F)c(C(F)(F)F)c1 (some centres unmarked) [Example 55]
4,561 nM,"COc1ccc(/C=C/C(=O)N[C@H]2C[C@@H](O)C2)cc1C(=O)N[C@@H]1C2CCC(/C2=C/C(F)(F)F)[C@@H]1C(=O)Nc1ccc(F)c(C(F)(F)F)c1 (stereo partly drawn) [Example 134, (2S,3R,7Z)-N-[4-fluoro-3-(trifluoromethyl)phe-nyl]-3-{2-methoxy-5-[(1E)-2-{[(1s,3s)-3-hydroxycyclobutyl]car-bamoyl}eth-1-en-1-yl]benzamido}-7-(2,2,2-trifluoroethylidene)bi-cyclo[2.2.1]heptane-2-carboxamide]"
5,134 nM,"COc1ccc(C#C[C@@H](C)O)cc1C(=O)N[C@@H]1C2CCC(/C2=C/C(F)(F)F)[C@@H]1C(=O)Nc1ccc(F)c(C(F)(F)F)c1 (stereo partly drawn) [Example 72, (2S,3R,7Z)-N-[4-fluoro-3-(trifluoromethyl)phe-nyl]-3-{5-[(3R)-3-hydroxybut-1-yn-1-yl]-2-methoxybenzamido}-7-(2,2,2-trifluoroethylidene)bi-cyclo[2.2.1]heptane-2-carboxamide]"
6,139 nM,"COc1ccc(CCN2CCOC2=O)cc1C(=O)NC1C2CCC(/C2=C/C(F)(F)F)[C@@H]1C(=O)Nc1ccc(F)c(C(F)(F)F)c1 (some centres unmarked) [Example 182, (7Z)-N-[4-fluoro-3-(trifluoromethyl)phe-nyl]-3-{2-methoxy-5-[2-(2-oxo-1,3-oxazolidin-3-yl)ethyl]benzamido}-7-(2,2,2-trifluoroethylidene)bi-cyclo[2.2.1]heptane-2-carboxamide]"
7,324 nM,"COc1ccc(CCCNC(=O)C2CCC2)cc1C(=O)N[C@@H]1C2CCC(/C2=C/C(F)(F)F)[C@@H]1C(=O)Nc1ccc(F)c(C(F)(F)F)c1 (stereo partly drawn) [Example 112, (2S,3R,7Z)-3-{5-[3-(cyclobutylformami-do)propyl]-2-methoxybenzamido}-N-[4-fluoro-3-(trifluoromethyl)phe-nyl]-7-(2,2,2-trifluoroethylidene)bi-cyclo[2.2.1]heptane-2-carboxamide]"
8,128 nM,"COc1ccc(C(=O)N2CC3(COC3)C2)cc1C(=O)N[C@H]1[C@@H](C(=O)Nc2ccc(F)c(C(F)(F)F)c2)[C@H]2CC[C@@H]1/C2=C\C1CC1 [Example 248, (1R,2S,3R,4R,7Z)-7-(cyclopropylmethyl-idene)-N-[4-fluoro-3-(trifluoromethyl)phenyl]-3-(2-methoxy-5-{2-oxa-6-azaspiro[3.3]heptane-6-carbonyl}benzamido) bicyclo[2.2.1]heptane-2-carboxamide]"
9,1440 nM,"COc1ccc(C2CCCCC2O)cc1C(=O)N[C@@H]1C2CCC(/C2=C/C(F)(F)F)[C@@H]1C(=O)Nc1ccc(F)c(C(F)(F)F)c1 (single isomer, unassigned) [Example 57]"
10,341 nM,"COc1ccc(CCCNC(=O)C(C)(C)O)cc1C(=O)N[C@@H]1C2CCC(/C2=C/C(F)(F)F)[C@@H]1C(=O)Nc1ccc(F)c(C(F)(F)F)c1 (stereo partly drawn) [Example 113, (2S,3R,7Z)-N-[4-fluoro-3-(trifluoromethyl)phe-nyl]-3-{5-[3-(2-hydroxy-2-methylpropanamido)propyl]-2-methoxybenzamido}-7-(2,2,2-trifluoroethylidene)bi-cyclo[2.2.1]heptane-2-carboxamide]"
11,3.6 nM,"COc1c(F)cc(C(=O)NCC2(S(C)(=O)=O)CC2)cc1C(=O)N[C@H]1[C@@H](C(=O)N[C@H](C)C2(C)CC2)[C@H]2CC[C@@H]1/C2=C\c1cnc(C(F)(F)F)s1 [Example 373, 5-fluoro-N1-[(1-methanesulfonyl-cyclopropyl)methyl]-4-methoxy-N3-[(1R,2R,3S,4R,7Z)-3-{[(1R)-1-(1-methylcyclopropyl)ethyl]carbamoyl}-7-{[2-(trifluoromethyl)-1,3-thiazol-5-yl]methylidene}bicyclo[2.2.1]heptan-2-yl]benzene-1,3-dicarboxamide]"
12,3 nM,"COc1ccc([C@@H]2CCC(CC(C)(C)O)C2)cc1C(=O)N[C@H]1[C@@H](C(=O)Nc2ccc(F)c(C(F)(F)F)c2)[C@H]2CC[C@@H]1/C2=C\C1CCCC1 (stereo partly drawn) [Example 362, (1R,2S,3R,4R,Z)-7-(cyclopentyl-methylene)-N-(4-fluoro-3-(trifluoromethyl)phenyl)-3-(5-((1R)-3-(2-hydroxy-2-methylpropyl)cyclopentyl)-2-methoxybenzamido) bicyclo[2.2.1] heptane-2-carboxamide]"
13,214 nM,"COc1ccc(C2CCCC(OC(=O)Nc3ccccc3)C2)cc1C(=O)N[C@@H]1C2CCC(/C2=C/C(F)(F)F)[C@@H]1C(=O)Nc1ccc(F)c(C(F)(F)F)c1 (single isomer, unassigned) [Example 42]"
14,33 nM,"COc1ccc(CCCCCCC#N)cc1C(=O)NC1C2CCC(/C2=C/C2CCC2)[C@@H]1C(=O)Nc1ccc(F)c(C(F)(F)F)c1 (some centres unmarked) [Example 192, (7Z)-3-[5-(6-cyanohexyl)-2-methoxybenzamido]-7-(cyclobutylmethyl-idene)-N-[4-fluoro-3-(trifluoromethyl)phe-nyl]bicyclo[2.2.1] heptane-2-carboxamide]"
15,142 nM,"COc1ccc(COc2ccccc2)cc1C(=O)N[C@@H]1C2CCC(/C2=C/C(F)(F)F)[C@@H]1C(=O)Nc1ccc(F)c(C(F)(F)F)c1 (stereo partly drawn) [Example 20, (2S,3R,7Z)-N-[4-fluoro-3-(trifluoromethyl)phe-nyl]-3-[2-methoxy-5-(phenoxymethyl)ben-zamido]-7-(2,2,2-trifluoroethylidene)bi-cyclo[2.2.1]heptane-2-carboxamide]"
16,51 nM,"COc1ccc(CCCO)cc1C(=O)NC1C2CCC(/C2=C/C2CCCOC2)[C@@H]1C(=O)Nc1ccc(F)c(C(F)(F)F)c1 (single isomer, unassigned) [Example 170, (7Z)-N-[4-fluoro-3-(trifluoromethyl)phe-nyl]-3-[5-(3-hydroxypropyl)-2-methoxybenzamido]-7-[(oxan-3-yl)methylidene]bicy-clo[2.2.1]heptane-2-carboxamide]"
17,144 nM,COc1ccc(C#CCO)cc1C(=O)N[C@@H]1C2CCC(/C2=C/C(F)(F)F)[C@@H]1C(=O)Nc1ccc(F)c(C(F)(F)F)c1 (some centres unmarked) [Example 68]
18,367 nM,"COc1ccc(C(=O)N2CC3CCC(C2)O3)cc1C(=O)N[C@H]1[C@@H](C(=O)Nc2ccc(F)c(C(F)(F)F)c2)[C@H]2CC[C@@H]1/C2=C\C1CC1 [Example 259, (1R,2S,3R,4R,7Z)-7-(cyclopropylmethylidene)-N-[4-fluoro-3-(trifluoromethyl)phenyl]-3-(2-methoxy-5-{8-oxa-3-azabicyclo[3.2.1]octane-3-carbonyl}benzamido) bicyclo[2.2.1] heptane-2-carboxamide]"
19,62 nM,"COc1ccc(C#CCCCO)cc1C(=O)N[C@@H]1C2CCC(/C2=C/C(F)(F)F)[C@@H]1C(=O)Nc1ccc(F)c(C(F)(F)F)c1 (stereo partly drawn) [Example 77, (2S,3R,7Z)-N-[4-fluoro-3-(trifluoromethyl)phe-nyl]-3-[5-(5-hydroxypent-1-yn-1-yl)-2-methoxybenzamido]-7-(2,2,2-trifluoroethylidene)bi-cyclo[2.2.1]heptane-2-carboxamide]"
20,91.2 nM,COc1ccc(/C=C/C(=O)N2CCC(C(F)(F)F)CC2)cc1C(=O)N[C@H]1[C@@H](C(=O)Nc2ccc(F)c(C(F)(F)F)c2)[C@H]2CC[C@@H]1/C2=C\C1CC1 [Example 315]
21,248 nM,"COc1ccc(CC[C@@H](C)O)cc1C(=O)N[C@@H]1C2CCC(/C2=C/C(F)(F)F)[C@@H]1C(=O)Nc1ccc(F)c(C(F)(F)F)c1 (stereo partly drawn) [Example 93, (2S,3R,7Z)-N-[4-fluoro-3-(trifluoromethyl)phe-nyl]-3-{5-[(3R)-3-hydroxybutyl]-2-methoxybenzamido}-7-(2,2,2-trifluoroethylidene)bi-cyclo[2.2.1]heptane-2-carboxamide]"
22,1810 nM,"COc1ccc(COC2CCC(OCc3ccccc3)CC2)cc1C(=O)N[C@@H]1C2CCC(/C2=C/C2CC2)[C@@H]1C(=O)Nc1ccc(F)c(C(F)(F)F)c1 (single isomer, unassigned) [Example 24]"

row,Compound,EC50
1,"(1R,4R,7Z)-N-14- fluoro-3- (trifluoromethyl) phenyl]-3-[5-(3- hydroxy-3- methylbutyl)-2- methoxybenzamido 1-7-[(oxan-3- yl)methylidene] bicyclo[2.2.1] heptane- 2-carboxamide [Example 266]",186 nM
